Source: patent US20160159816A1, “SUBSTITUTED THIENOPYRIMIDINES AND PHARMACEUTICAL USE THEREOF” (BAYER PHARMA AKTIENGESELLSCHAFT, priority 2013, published 2016)

Biological target: T1, human full-length MKNK1 (Homo sapiens, UniProt Q9BUB5, T385D)
T1 construct: GST (N); purchased Carna Biosciences 02-145; host or cells: insect cells, baculovirus expression system
Assay: MKNK1 kinase high ATP assay (TR-FRET)
Assay type: biochemical
Conditions: high ATP (2 mM), after preincubation with MKNK1; compounds of the present invention (Table 1a)
Method in brief: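 GST-tagged full-length human MKNK1 pre-incubated 15 min with compound, then reacted 30 min at 22 °C with 2 mM ATP and 0.06 μM biotinylated peptide substrate (pH 7.5). Phospho-peptide detected by TR-FRET (665/620 nm ratio); normalised to no-inhibitor and no-enzyme controls.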

T1 sequence (Q9BUB5 1-424 isoform Q9BUB5-2 T344D): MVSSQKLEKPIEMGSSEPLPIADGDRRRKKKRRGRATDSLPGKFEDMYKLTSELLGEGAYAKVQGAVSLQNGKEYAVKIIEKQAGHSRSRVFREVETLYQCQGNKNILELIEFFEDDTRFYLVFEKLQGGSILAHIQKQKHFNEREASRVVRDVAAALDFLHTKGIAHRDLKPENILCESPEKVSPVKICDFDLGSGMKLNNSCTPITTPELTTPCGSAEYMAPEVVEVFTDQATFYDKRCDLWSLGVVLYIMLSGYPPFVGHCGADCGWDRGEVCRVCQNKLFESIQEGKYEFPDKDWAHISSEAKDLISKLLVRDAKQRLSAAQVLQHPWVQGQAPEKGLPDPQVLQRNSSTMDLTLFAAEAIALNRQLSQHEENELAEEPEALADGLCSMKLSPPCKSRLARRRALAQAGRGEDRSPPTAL

## CC[C@]1(C(=O)N2CCOC[C@H]2C)CCc2c(sc3ncnc(Nc4cc5cn[nH]c5cc4OC)c23)C1 [Example 75, {(7S)-7-Ethyl-4-[(6-methoxy-1H-indazol-5-yl)amino]-5,6,7,8-tetrahydro[1]benzothieno[2,3-d]pyrimidin-7-yl}[(3R)-3-methylmorpholin-4-yl]methanone]
  IC50: 0.0206 µM
